Read-outs that look alike come from different tables or passages of the source.
Legend:
Legionella = settings: mouse, in vivo; cited from earlier work
[1] = system: Thioglycollate induced macrophages (Mφ); experiment: viability of macrophages cultured with CBD; type: cell-based, mouse; settings: 8 μg/ml CBD; after 48 hr
IL-2 = settings: cited from earlier work
IL-11 = experiment: human rheumatoid synovial cell IL-11 production (ELISA); type: cell-based; settings: for IL-11, mean: 48 hours culture
Experimental: (§1) Synovial membrane tissue was obtained from a patient fulfilling the revised American College of Rheumatology criteria for rheumatoid arthritis who underwent joint replacement surgery. Synovial cell cultures were prepared as described. Briefly, synovial membrane tissue was digested with collagenase type A (1 mg/ml) and DNAase I (0.15 mg/ml) in RPMI 1640 containing 5% FCS for 2 hours at 37° C.
(§2) Similarly, rheumatoid synovial cells spontaneously produce cytokines when cultured in vitro. […] With restricted number of human synovial cells in this sample, the optimal dose for inhibiting TNFα may have been missed.

EAE = experiment: experimental autoimmune encephalomyelitis (EAE); type: in vivo, mouse (SJL/J)
[2] = system: collagen induced arthritis (CIA)
Experimental: Bovine type II collagen (CII) was purified from hyaline cartilage, as described [Williams, 1992# 18]. Male DBA/1 mice (8-12 weeks old) were immunized with 100 μg of CII emulsified in complete Freund's adjuvant CFA (Difco, Detroit, Mich.) by intradermal injection at the base of the tail. From day 15 after immunization onwards, mice were examined daily for onset of CIA using two clinical parameters: paw swelling and clinical score [Williams, PNAS, Vol. 89, pages 97848]. Paw swelling was assessed by measuring the thickness of the affected hind paws with 0-10 mm callipers (Kroeplin, Schluchtern, Germany). For the clinical score, 0=normal; 1=slight swelling and erythema; 2=pronounced edema; 3=joint rigidity. Each limb was graded, resulting in a maximal clinical score of 12 per animal. The arthritis was monitored over 10 days, after which the mice were sacrificed.
Mice injected with vehicle alone (ethanolcremophor in saline) served as controls (n=23).

[3] = system: Thioglycollate-elicited granulocytes; experiment: viability of granulocytes in the ROI test; type: cell-based, mouse (C57BL/6)
Experimental: (§3) Thioglycollate-elicited granulocytes were harvested from C57BL/6 mice by sterile lavage with PBS 18 hrs. after intraperitoneal injection with 1.5 ml thioglycollate medium (1.5 ml in 3% solution). The cells were washed and resuspended at 5×10^5 cells/ml in Hanks' buffered salt solution without phenol red, and distributed at 0.5 ml/tube into luminometer plastic tubes. […] The tube was inserted into luminometer (Biolumate LB 95 oot Berhold Wildbad Germany) which had been prewarmed to 37° C. The granulocyte luminol-enhanced chemiluminescence response to zymosan was considered as the positive control.

[4] = system: ROI production by granulocytes; experiment: ROI production by granulocytes, luminol-enhanced chemiluminescence response to zymosan; type: cell-based, mouse (C57BL/6)
Experimental: as §3

[5] = system: nitric oxide (NO) generation; experiment: nitric oxide (NO) generation by Thioglycollate induced macrophages, Griess reagent; type: cell-based, mouse
IL-6 = experiment: human rheumatoid synovial cell IL-6 production (ELISA); type: cell-based; settings: for IL-6, mean: 48 hours culture
Experimental: as §1, §2

CB2 = CB2 (Homo sapiens, UniProt P34972); settings: cited from earlier work
[6] = system: animal models predictive of antipsychotic activity; settings: in vivo; cited from earlier work
TNFα production = TNFα production by Thioglycollate induced macrophages; type: cell-based, mouse (C57BL/6); parameters: TNFα production, 6 h / TNFα production, 24 h: unit not given here; settings: for inhibition at 2 µg/mL / inhibition at 4 µg/mL / inhibition at 6 µg/mL: Mus musculus, Macrophage
Excerpt: […] […] IFN-γ and IFN-α were purchased from Boehringer Mannheim, Germany.
Thioglycoiate-elicited peritoneal macrophages from C57BL/6 mice.

TPA-induced erythema = settings: applied topically; cited from earlier work
[7] = LPS 1 μg/ml + IFNγ 10 U/ml, CBD 2 μg/ml
[8] = LPS 1 μg/ml + IFNγ 10 U/ml, CBD 4 (μg/ml)
[9] = LPS 1 μg/ml + IFNγ 10 U/ml, CBD 6 (μg/ml)
[10] = LPS 1 μg/ml + IFNγ 10 U/ml, CBD 8 (μg/ml)
[11] = LPS 1 μg/ml + IFNγ 10 U/ml, CBD 2 μg/ml, 24 h

Sequence of CB2 (P34972 whole entry, species assumed): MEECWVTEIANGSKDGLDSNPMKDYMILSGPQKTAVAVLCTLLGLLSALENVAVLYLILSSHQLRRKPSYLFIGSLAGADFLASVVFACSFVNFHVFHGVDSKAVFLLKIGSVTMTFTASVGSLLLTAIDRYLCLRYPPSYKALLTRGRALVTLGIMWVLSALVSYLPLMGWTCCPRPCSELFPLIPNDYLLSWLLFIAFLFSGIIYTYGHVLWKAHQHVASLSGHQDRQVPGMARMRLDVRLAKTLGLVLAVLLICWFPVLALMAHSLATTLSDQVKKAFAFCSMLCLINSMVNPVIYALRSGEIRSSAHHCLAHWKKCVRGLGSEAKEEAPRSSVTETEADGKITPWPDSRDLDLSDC

In the case of `C=C(C)[C@@H]1CCC(C)=C[C@H]1c1c(O)cc(CCCCC)cc1O` [CBD, Cannabidiol], the “mortality of mice sublethally injected with Legionella” value (Legionella) is listed as “not affected”, the “viability of Mφ” value [1] is listed as “**After 48 hr the Mφ cultured with 8 μg/ml CBD were only 70% viable” and the IL-2 secretion (IL-2) is listed as “did not affect IL-2 secretion”. For the same compound, the “IL-11 release (in words)” value (IL-11) was “dose-dependent inhibition”, the “IL-11, mean” value (IL-11; CBD 0.1 μg/ml) was 2151 pg/mL and the “IL-11, mean” value (IL-11; CBD 1 μg/ml) was 2059 pg/mL. For the same compound, the “IL-11, mean” value (IL-11; CBD 20 μg/ml) was 100 pg/mL, the “suppression of EAE (in words)” value (EAE; 10 mg/kg) was “markedly suppresses EAE” and the “Duration of EAE” value (EAE; CBD 10 mg/kg i.p. once a day for 14 days) was 2.16 days. For the same compound, the “Incidence of EAE” value (EAE; CBD 10 mg/kg i.p. once a day for 14 days, 6 SJL/J mice) was 2/6, the “Mean maximum score (EAE)” value (EAE; CBD 10 mg/kg i.p. once a day for 14 days, six point scale 0-6) was 1 and the “therapeutic effect on CIA (clinical score, paw thickness)” value ([2]; 2.5 mg/kg i.p. daily until day 10) was “no effect at all”. The “therapeutic effect on CIA (clinical score, paw thickness)” value ([2]; 10 mg/kg i.p. daily until day 10) was “slight therapeutic effect”, the “cell viability at the end of the experiment” value ([3]; CBD 6 μg/ml) was “All cells were viable” and the “cells available (viable)” value ([3]; after 1-2 hours of CBD treatment, 6 μg/ml) was “about 100%”. For the same compound, the Chemiluminescence computer peak ([4]; Zymozan + CBD 5 μg/ml (1 h)) was 157, the Chemiluminescence computer peak ([4]; Zymozan + CBD 6 μg/ml (0 h)) was 1024 and the Chemiluminescence computer peak ([4]; Zymozan + CBD 6 μg/ml (2 h)) was 235. The “% INHIBITION of NO, 24 h” value [5, 7] was 14%, the “NO, 24 h” value [5, 7] was 12 nM and the “NO, 48 h” value ([5]; LPS 1 μg/ml + IFNγ 10 U/ml, CBD 2 (μg/ml)) was 25.4 nM. For the same compound, the “% INHIBITION of NO, 24 h” value [5, 8] was 51%, the “NO, 24 h” value [5, 8] was 6.9 nM and the “NO, 48 h” value [5, 8] was 21.3 nM. For the same compound, the “% INHIBITION of NO, 24 h” value [5, 9] was 61%, the “NO, 24 h” value [5, 9] was 5.5 nM and the “NO, 48 h” value [5, 9] was 18.1 nM. The “% INHIBITION of NO, 24 h” value [5, 10] was 99%, the “NO, 24 h” value [5, 10] was 0.2 nM and the “% INHIBITION of NO, 48 h” value [5, 10] was 85%. The “NO, 48 h” value [5, 10] was 3.1 nM, the “% INHIBITION of NO, 24 h” value ([5]; LPS 1 μg/ml, CBD 2 (μg/ml)) was 32% and the “NO, 24 h” value ([5]; LPS 1 μg/ml, CBD 2 (μg/ml)) was 3.7 nM. For the same compound, the “% INHIBITION of NO, 48 h” value ([5]; LPS 1 μg/ml, CBD 2 (μg/ml)) was 9%, the “NO, 48 h” value ([5]; LPS 1 μg/ml, CBD 2 (μg/ml)) was 6.7 nM and the “% INHIBITION of NO, 24 h” value ([5]; LPS 1 μg/ml, CBD 4 (μg/ml)) was 90%. For the same compound, the “NO, 24 h” value ([5]; LPS 1 μg/ml, CBD 4 (μg/ml)) was 0.5 nM, the “% INHIBITION of NO, 48 h” value ([5]; LPS 1 μg/ml, CBD 4 (μg/ml)) was 37% and the “NO, 48 h” value ([5]; LPS 1 μg/ml, CBD 4 (μg/ml)) was 4.6 nM. The “% INHIBITION of NO, 24 h” value ([5]; LPS 1 μg/ml, CBD 6 (μg/ml)) was 99%, the “NO, 24 h” value ([5]; LPS 1 μg/ml, CBD 6 (μg/ml)) was 0.1 nM and the “% INHIBITION of NO, 48 h” value ([5]; LPS 1 μg/ml, CBD 6 (μg/ml)) was 71%. The “NO, 48 h” value ([5]; LPS 1 μg/ml, CBD 6 (μg/ml)) was 2.1 nM, the “% INHIBITION of NO, 24 h” value ([5]; LPS 1 μg/ml, CBD 8 (μg/ml)) was 99% and the “NO, 24 h” value ([5]; LPS 1 μg/ml, CBD 8 (μg/ml)) was 0.1 nM. For the same compound, the “% INHIBITION of NO, 48 h” value ([5]; LPS 1 μg/ml, CBD 8 (μg/ml)) was 95%, the “NO, 48 h” value ([5]; LPS 1 μg/ml, CBD 8 (μg/ml)) was 0.4 nM and the “effect on nitric oxide production (in words)” value ([5]; higher concentrations of CBD) was “inhibit nitric oxide production”. The “effect on nitric oxide production (in words)” value ([5]; low concentrations of CBD) was “activate nitric oxide production”, the “IL-6 release (in words)” value (IL-6) was “dose-dependent inhibition” and the “IL-6, mean” value (IL-6; CBD 0.1 μg/ml) was 281 ng/mL. For the same compound, the “IL-6, mean” value (IL-6; CBD 1 μg/ml) was 326 ng/mL, the “IL-6, mean” value (IL-6; CBD 20 μg/ml) was 125 ng/mL and the “binding to peripheral receptor CB2” value (CB2) was “does not bind”. For the same compound, the “efficacy in animal models predictive of antipsychotic activity” value [6] was “effective”, the “TNFα production, 6 h” value (TNFα production; LPS 1 μg/ml + IFNγ 10 U/ml, CBD 2 μg/ml, 6 h) was 744 and the “% INHIBITION of TNFα production, 24 h” value (TNFα production; [11]) was “enhanced 72%”. For the same compound, the “TNFα production, 24 h” value (TNFα production; [11]) was 4578, the “TNFα production, 6 h” value (TNFα production; LPS 1 μg/ml + IFNγ 10 U/ml, CBD 4 μg/ml, 6 h) was 478 and the “TNFα production, 6 h” value (TNFα production; LPS 1 μg/ml + IFNγ 10 U/ml, CBD 6 μg/ml, 6 h) was 548. The “TNFα production, 24 h” value (TNFα production; LPS 1 μg/ml + IFNγ 10 U/ml, CBD 4 (μg/ml), 24 h) was 437, the “TNFα production, 24 h” value (TNFα production; LPS 1 μg/ml + IFNγ 10 U/ml, CBD 6 (μg/ml), 24 h) was 207 and the “TNFα production, 6 h” value (TNFα production; LPS 1 μg/ml, CBD 2 μg/ml, 6 h) was 543. The “TNFα production, 6 h” value (TNFα production; LPS 1 μg/ml, CBD 4 μg/ml, 6 h) was 271, the “TNFα production, 6 h” value (TNFα production; LPS 1 μg/ml, CBD 6 μg/ml, 6 h) was 290 and the “TNFα production, 24 h” value (TNFα production; LPS 1 μg/ml, CBD 2 (μg/ml), 24 h) was 90. For the same compound, the “TNFα production, 24 h” value (TNFα production; LPS 1 μg/ml, CBD 4 (μg/ml), 24 h) was 36, the “TNFα production, 24 h” value (TNFα production; LPS 1 μg/ml, CBD 6 (μg/ml), 24 h) was 34 and the inhibition at 2 µg/mL (TNFα production; 6 h, LPS 1 μg/ml + IFNγ 10 U/ml, CBD 2 μg/ml, 6 h, read-out: % INHIBITION of TNFα production, 6 h) was 0%. For the same compound, the inhibition at 4 µg/mL (TNFα production; 6 h, LPS 1 μg/ml + IFNγ 10 U/ml, CBD 4 μg/ml, 6 h, read-out: % INHIBITION of TNFα production, 6 h) was 33%, the inhibition at 6 µg/mL (TNFα production; 6 h, LPS 1 μg/ml + IFNγ 10 U/ml, CBD 6 μg/ml, 6 h, read-out: % INHIBITION of TNFα production, 6 h) was 24% and the inhibition at 2 µg/mL (TNFα production; 6 h, LPS 1 μg/ml, CBD 2 μg/ml, 6 h, read-out: % INHIBITION of TNFα production, 6 h) was 9%. The inhibition at 4 µg/mL (TNFα production; 6 h, LPS 1 μg/ml, CBD 4 μg/ml, 6 h, read-out: % INHIBITION of TNFα production, 6 h) was 54%, the inhibition at 6 µg/mL (TNFα production; 6 h, LPS 1 μg/ml, CBD 6 μg/ml, 6 h, read-out: % INHIBITION of TNFα production, 6 h) was 51% and the inhibition at 4 µg/mL (TNFα production; 24 h, LPS 1 μg/ml + IFNγ 10 U/ml, CBD 4 μg/ml, 24 h, read-out: % INHIBITION of TNFα production, 24 h) was 84%. The inhibition at 6 µg/mL (TNFα production; 24 h, LPS 1 μg/ml + IFNγ 10 U/ml, CBD 6 μg/ml, 24 h, read-out: % INHIBITION of TNFα production, 24 h) was 92%, the inhibition at 2 µg/mL (TNFα production; 24 h, LPS 1 μg/ml, CBD 2 μg/ml, 24 h, read-out: % INHIBITION of TNFα production, 24 h) was 67% and the inhibition at 4 µg/mL (TNFα production; 24 h, LPS 1 μg/ml, CBD 4 μg/ml, 24 h, read-out: % INHIBITION of TNFα production, 24 h) was 87%. For the same compound, the inhibition at 6 µg/mL (TNFα production; 24 h, LPS 1 μg/ml, CBD 6 μg/ml, 24 h, read-out: % INHIBITION of TNFα production, 24 h) was 88%, the “effect on TNFα production (in words)” value (TNFα production; low concentrations of CBD) was “enhance TNFα production” and the “effect on TNFα production (in words)” value (TNFα production; summary of Table 1) was “inhibits TNFα production”. The TPA-induced erythema (TPA-induced erythema) was “reduce TPA-induced erythema”.

— US6410588B1, “Use of cannabinoids as anti-inflammatory agents” (priority 1998, dated 2002)
